# Test results taken from PubChem BioAssay (NCI).
#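 96-well plates; 48 h exposure; 5 concentrations. Endpoints by linear interpolation between flanking doses. Not reached: highest tested concentration assigned. GI50: concentration for 50% inhibition of growth. TGI: concentration producing complete growth inhibition.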
# How the values were obtained:
# Experiment in all cases: DTP human tumour cell line panel, 48 h
# ACHN renal = tested on: ACHN renal
# OVCAR-3 ovarian = tested on: OVCAR-3 ovarian
# HOP-62 NSCLC = tested on: HOP-62 NSCLC
# DU-145 prostate = tested on: DU-145 prostate
# OVCAR-4 ovarian = tested on: OVCAR-4 ovarian
# HCC-2998 colon = tested on: HCC-2998 colon
# UO-31 renal = tested on: UO-31 renal
# LOX IMVI melanoma = tested on: LOX IMVI melanoma
# HS 578T breast = tested on: HS 578T breast
# HCT-116 colon = tested on: HCT-116 colon
# U251 CNS = tested on: U251 CNS
# CCRF-CEM leukemia = tested on: CCRF-CEM leukemia
# K-562 leukemia = tested on: K-562 leukemia
# COLO 205 colon = tested on: COLO 205 colon
# SNB-75 CNS = tested on: SNB-75 CNS
# NCI-H522 lung = tested on: NCI-H522 lung
# A549 NSCLC = tested on: A549 NSCLC
# MCF7 breast = tested on: MCF7 breast
# UACC-62 melanoma = tested on: UACC-62 melanoma
# HT29 colon = tested on: HT29 colon
# A498 renal = tested on: A498 renal
# MDA-MB-231 breast = tested on: MDA-MB-231 breast
# IGROV1 ovarian = tested on: IGROV1 ovarian
# MOLT-4 leukemia = tested on: MOLT-4 leukemia
# SR leukemia = tested on: SR leukemia
# CAKI-1 renal = tested on: CAKI-1 renal
# SW-620 colon = tested on: SW-620 colon
# M14 melanoma = tested on: M14 melanoma
# RXF 393 renal = tested on: RXF 393 renal
# TK-10 renal = tested on: TK-10 renal
# SK-OV-3 ovarian = tested on: SK-OV-3 ovarian
# SK-MEL-2 melanoma = tested on: SK-MEL-2 melanoma
# RPMI-8226 leukemia = tested on: RPMI-8226 leukemia
# HOP-92 NSCLC = tested on: HOP-92 NSCLC
# PC-3 prostate = tested on: PC-3 prostate
# SK-MEL-28 melanoma = tested on: SK-MEL-28 melanoma
# NCI-H226 lung = tested on: NCI-H226 lung
# OVCAR-8 ovarian = tested on: OVCAR-8 ovarian
# SNB-19 CNS = tested on: SNB-19 CNS
# BT-549 breast = tested on: BT-549 breast
# KM12 colon = tested on: KM12 colon
# SK-MEL-5 melanoma = tested on: SK-MEL-5 melanoma
# UACC-257 melanoma = tested on: UACC-257 melanoma
# SF-268 CNS = tested on: SF-268 CNS
# SF-295 CNS = tested on: SF-295 CNS
# OVCAR-5 ovarian = tested on: OVCAR-5 ovarian
# NCI-H460 lung = tested on: NCI-H460 lung
# HL-60(TB) leukemia = tested on: HL-60(TB) leukemia
# 786-0 renal = tested on: 786-0 renal
# NCI/ADR-RES ovarian = tested on: NCI/ADR-RES ovarian
# HCT-15 colon = tested on: HCT-15 colon
# SF-539 CNS = tested on: SF-539 CNS
# MALME-3M melanoma = tested on: MALME-3M melanoma
# SN12C renal = tested on: SN12C renal
# MDA-MB-435 = tested on: MDA-MB-435
# T-47D breast = tested on: T-47D breast
# NCI-H23 lung = tested on: NCI-H23 lung
structure (smiles),measurement,setting,value
O=C1C(c2c[nH]c3ccccc23)=C(c2c[nH]c3ccccc23)C(=O)N1O,GI50,ACHN renal,> 25 µM
same,TGI,ACHN renal,> 25 µM
same,GI50,OVCAR-3 ovarian,> 25 µM
same,TGI,OVCAR-3 ovarian,> 25 µM
same,GI50,HOP-62 NSCLC,> 25 µM
same,TGI,HOP-62 NSCLC,> 25 µM
same,GI50,DU-145 prostate,> 25 µM
same,TGI,DU-145 prostate,> 25 µM
same,GI50,OVCAR-4 ovarian,> 25 µM
same,TGI,OVCAR-4 ovarian,> 25 µM
same,GI50,HCC-2998 colon,> 25 µM
same,TGI,HCC-2998 colon,> 25 µM
same,GI50,UO-31 renal,5.78 µM
same,TGI,UO-31 renal,> 25 µM
same,GI50,LOX IMVI melanoma,4.65 µM
same,TGI,LOX IMVI melanoma,> 25 µM
same,GI50,HS 578T breast,> 19.7 µM
same,TGI,HS 578T breast,> 25 µM
same,GI50,HCT-116 colon,> 25 µM
same,TGI,HCT-116 colon,> 25 µM
same,GI50,U251 CNS,> 25 µM
same,TGI,U251 CNS,> 25 µM
same,GI50,CCRF-CEM leukemia,> 25 µM
same,TGI,CCRF-CEM leukemia,> 25 µM
same,GI50,K-562 leukemia,> 25 µM
same,TGI,K-562 leukemia,> 25 µM
same,GI50,COLO 205 colon,> 25 µM
same,TGI,COLO 205 colon,> 25 µM
same,GI50,SNB-75 CNS,> 25 µM
same,TGI,SNB-75 CNS,> 25 µM
same,GI50,NCI-H522 lung,> 25 µM
same,TGI,NCI-H522 lung,> 25 µM
same,GI50,A549 NSCLC,> 25 µM
same,TGI,A549 NSCLC,> 25 µM
same,GI50,MCF7 breast,> 25 µM
same,TGI,MCF7 breast,> 25 µM
same,GI50,UACC-62 melanoma,24.6 µM
same,TGI,UACC-62 melanoma,> 25 µM
same,GI50,HT29 colon,> 25 µM
same,TGI,HT29 colon,> 25 µM
same,GI50,A498 renal,8.1 µM
same,TGI,A498 renal,> 25 µM
same,GI50,MDA-MB-231 breast,> 19.4 µM
same,TGI,MDA-MB-231 breast,> 25 µM
same,GI50,IGROV1 ovarian,> 25 µM
same,TGI,IGROV1 ovarian,> 25 µM
same,GI50,MOLT-4 leukemia,> 25 µM
same,TGI,MOLT-4 leukemia,> 25 µM
same,GI50,SR leukemia,> 25 µM
same,TGI,SR leukemia,> 25 µM
same,GI50,CAKI-1 renal,> 20.8 µM
same,TGI,CAKI-1 renal,> 25 µM
same,GI50,SW-620 colon,> 25 µM
same,TGI,SW-620 colon,> 25 µM
same,GI50,M14 melanoma,> 25 µM
same,TGI,M14 melanoma,> 25 µM
same,GI50,RXF 393 renal,> 22.7 µM
same,TGI,RXF 393 renal,> 25 µM
same,GI50,TK-10 renal,> 25 µM
same,TGI,TK-10 renal,> 25 µM
same,GI50,SK-OV-3 ovarian,> 25 µM
same,TGI,SK-OV-3 ovarian,> 25 µM
same,GI50,SK-MEL-2 melanoma,> 25 µM
same,TGI,SK-MEL-2 melanoma,> 25 µM
same,GI50,RPMI-8226 leukemia,> 25 µM
same,TGI,RPMI-8226 leukemia,> 25 µM
same,GI50,HOP-92 NSCLC,2.89 µM
same,TGI,HOP-92 NSCLC,21.7 µM
same,GI50,PC-3 prostate,> 25 µM
same,TGI,PC-3 prostate,> 25 µM
same,GI50,SK-MEL-28 melanoma,> 25 µM
same,TGI,SK-MEL-28 melanoma,> 25 µM
same,GI50,NCI-H226 lung,> 25 µM
same,TGI,NCI-H226 lung,> 25 µM
same,GI50,OVCAR-8 ovarian,> 25 µM
same,TGI,OVCAR-8 ovarian,> 25 µM
same,GI50,SNB-19 CNS,> 25 µM
same,TGI,SNB-19 CNS,> 25 µM
same,GI50,BT-549 breast,> 25 µM
same,TGI,BT-549 breast,> 25 µM
same,GI50,KM12 colon,> 25 µM
same,TGI,KM12 colon,> 25 µM
same,GI50,SK-MEL-5 melanoma,> 25 µM
same,TGI,SK-MEL-5 melanoma,> 25 µM
same,GI50,UACC-257 melanoma,> 25 µM
same,TGI,UACC-257 melanoma,> 25 µM
same,GI50,SF-268 CNS,> 25 µM
same,TGI,SF-268 CNS,> 25 µM
same,GI50,SF-295 CNS,> 25 µM
same,TGI,SF-295 CNS,> 25 µM
same,GI50,OVCAR-5 ovarian,> 25 µM
same,TGI,OVCAR-5 ovarian,> 25 µM
same,GI50,NCI-H460 lung,> 25 µM
same,TGI,NCI-H460 lung,> 25 µM
same,GI50,HL-60(TB) leukemia,> 25 µM
same,TGI,HL-60(TB) leukemia,> 25 µM
same,GI50,786-0 renal,> 25 µM
same,TGI,786-0 renal,> 25 µM
same,GI50,NCI/ADR-RES ovarian,> 25 µM
same,TGI,NCI/ADR-RES ovarian,> 25 µM
same,GI50,HCT-15 colon,> 25 µM
same,TGI,HCT-15 colon,> 25 µM
same,GI50,SF-539 CNS,> 25 µM
same,TGI,SF-539 CNS,> 25 µM
same,GI50,MALME-3M melanoma,> 25 µM
same,TGI,MALME-3M melanoma,> 25 µM
same,GI50,SN12C renal,> 25 µM
same,TGI,SN12C renal,> 25 µM
same,GI50,MDA-MB-435,> 25 µM
same,TGI,MDA-MB-435,> 25 µM
same,GI50,T-47D breast,> 25 µM
same,TGI,T-47D breast,> 25 µM
same,GI50,NCI-H23 lung,> 25 µM
same,TGI,NCI-H23 lung,> 25 µM
